Results as given in article PMC12163485 (Drug Metabolism and Disposition, 2025).
Values joined by “and” are separate entries in the source; they are usually repeats but may differ in a detail not shown here. Equal entries are not always repeated. Where two headings read alike, the source gives them in different places.

Tests used:
[1] = target: T1, mouse OCT1 (Mus musculus, UniProt O08966); experiment: Uptake of the cocktail by HEK293 cells overexpressing mouse Oct1
T1 sequence (O08966 1-556): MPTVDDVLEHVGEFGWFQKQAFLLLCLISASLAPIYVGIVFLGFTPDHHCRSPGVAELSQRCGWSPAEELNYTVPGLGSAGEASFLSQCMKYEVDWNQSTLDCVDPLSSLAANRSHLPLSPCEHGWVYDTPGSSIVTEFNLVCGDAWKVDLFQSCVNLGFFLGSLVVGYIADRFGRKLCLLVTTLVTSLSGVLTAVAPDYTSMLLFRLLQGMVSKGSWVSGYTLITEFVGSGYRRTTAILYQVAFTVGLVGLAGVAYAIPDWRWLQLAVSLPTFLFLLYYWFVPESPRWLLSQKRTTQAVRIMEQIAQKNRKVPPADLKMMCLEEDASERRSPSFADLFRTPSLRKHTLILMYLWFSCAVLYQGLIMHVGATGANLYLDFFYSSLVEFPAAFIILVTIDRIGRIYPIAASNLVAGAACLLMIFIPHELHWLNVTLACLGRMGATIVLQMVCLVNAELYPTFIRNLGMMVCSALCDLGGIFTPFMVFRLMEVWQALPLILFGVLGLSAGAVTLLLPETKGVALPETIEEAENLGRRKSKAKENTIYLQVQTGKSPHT
Experimental: (§1) Significance was calculated using Mann–Whitney U test. n = 5–8 independent experiments.

[2] = Pharmacokinetic parameters used for estimating the potential for DDIs; format: in vivo, human; conditions: human; for k el: po
Experimental: Ka was calculated manually based on available pharmacokinetic parameters.

[3] = target: T2, human MATE1 (hMATE1) (Homo sapiens, UniProt Q96FL8); experiment: Uptake of the extended cocktail by HEK293 cells overexpressing hMATE1; format: in vitro ADME; conditions: Fig. 6, uptake 1 minute after NH4Cl preincubation
T2 sequence (Q96FL8 1-570): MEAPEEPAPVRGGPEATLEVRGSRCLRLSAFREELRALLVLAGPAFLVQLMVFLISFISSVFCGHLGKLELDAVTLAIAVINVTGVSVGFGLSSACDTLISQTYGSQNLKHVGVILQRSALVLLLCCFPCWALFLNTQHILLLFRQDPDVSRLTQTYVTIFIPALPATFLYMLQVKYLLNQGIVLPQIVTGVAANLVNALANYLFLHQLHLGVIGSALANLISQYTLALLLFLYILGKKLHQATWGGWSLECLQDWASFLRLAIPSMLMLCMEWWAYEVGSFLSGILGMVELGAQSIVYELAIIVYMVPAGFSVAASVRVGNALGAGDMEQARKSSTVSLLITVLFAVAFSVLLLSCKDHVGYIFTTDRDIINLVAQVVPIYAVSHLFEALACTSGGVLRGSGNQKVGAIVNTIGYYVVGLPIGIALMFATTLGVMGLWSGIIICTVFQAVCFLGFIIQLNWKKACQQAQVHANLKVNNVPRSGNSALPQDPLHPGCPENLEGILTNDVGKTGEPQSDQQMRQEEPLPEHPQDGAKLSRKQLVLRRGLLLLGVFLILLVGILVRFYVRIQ

[4] = target: human MATE2K (hMATE2K) (Homo sapiens, UniProt Q86VL8); experiment: Uptake of the extended cocktail by HEK293 cells overexpressing hMATE2K; format: in vitro ADME; conditions: Fig. 6, uptake 1 minute after NH4Cl preincubation
Chain of human MATE2K (hMATE2K) (Q86VL8 1-566 isoform Q86VL8-3): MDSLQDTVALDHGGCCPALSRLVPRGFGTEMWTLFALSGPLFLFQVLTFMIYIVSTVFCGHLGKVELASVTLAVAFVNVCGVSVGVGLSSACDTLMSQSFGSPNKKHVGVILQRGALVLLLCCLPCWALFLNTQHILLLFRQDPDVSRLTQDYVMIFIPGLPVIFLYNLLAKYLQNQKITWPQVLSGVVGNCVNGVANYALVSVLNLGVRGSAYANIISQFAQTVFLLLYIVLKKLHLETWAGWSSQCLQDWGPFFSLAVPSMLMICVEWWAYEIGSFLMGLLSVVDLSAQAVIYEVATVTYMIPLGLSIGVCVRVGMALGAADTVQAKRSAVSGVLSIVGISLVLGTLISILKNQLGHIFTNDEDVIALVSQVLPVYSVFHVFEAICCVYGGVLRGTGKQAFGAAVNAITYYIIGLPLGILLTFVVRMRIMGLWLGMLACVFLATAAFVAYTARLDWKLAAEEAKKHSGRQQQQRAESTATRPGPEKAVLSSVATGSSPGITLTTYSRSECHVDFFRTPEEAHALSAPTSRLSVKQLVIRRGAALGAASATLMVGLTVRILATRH

[5] = target: T3, OCT1 (Homo sapiens, UniProt O15245)
T3 sequence (O15245 1-554): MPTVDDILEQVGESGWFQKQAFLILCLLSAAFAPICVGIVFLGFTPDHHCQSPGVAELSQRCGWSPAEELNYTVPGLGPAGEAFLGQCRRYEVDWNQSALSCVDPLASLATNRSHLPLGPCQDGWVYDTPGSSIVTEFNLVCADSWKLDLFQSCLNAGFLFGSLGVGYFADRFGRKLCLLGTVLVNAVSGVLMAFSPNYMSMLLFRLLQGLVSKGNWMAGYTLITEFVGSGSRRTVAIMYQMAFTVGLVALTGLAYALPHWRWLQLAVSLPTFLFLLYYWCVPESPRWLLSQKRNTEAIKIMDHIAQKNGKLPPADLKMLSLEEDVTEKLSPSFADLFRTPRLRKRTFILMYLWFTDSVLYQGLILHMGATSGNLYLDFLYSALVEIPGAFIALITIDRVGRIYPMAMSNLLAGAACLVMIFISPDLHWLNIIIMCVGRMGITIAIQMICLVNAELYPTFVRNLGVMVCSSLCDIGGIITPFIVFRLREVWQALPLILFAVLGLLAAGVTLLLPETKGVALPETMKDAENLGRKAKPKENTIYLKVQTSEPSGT
Experimental: (§2) Ka was calculated manually based on available pharmacokinetic parameters. Qh was set to 97 L/h and Fa was assumed as 1.

[6] = tested on: mOct1; design: method as in ref column References of Table 2 (Morse et al, 2020; Jensen et al, 2020; Meyer et al, 2022); conditions: literature values; References of Table 2 (Morse et al, 2020; Jensen et al, 2020; Meyer et al, 2022); cited from earlier work
[7] = cited from earlier work; for cmax = Imax: dose and route as in Supplemental Table 4, ref Hardman, 2018, fenoterol Tzvetkov et al; for cmax = Imax / fraction unbound: ipratropium Zhang et al, 2023; for fraction unbound: fraction unbound in plasma, ref Hardman, 2018, Lombardo et al (2018), fenoterol Tzvetkov et al; for tmax: p.o., ref Hardman, 2018
[8] = target: T3, OCT1; experiment: DDI risk R calculated from IC50 at human OCT1; conditions: R=1+fup×Iin,max/IC50, cutoff R ≥ 1.1
Experimental: as §2

[9] = target: T4, human OCT1 (hOCT1) (Homo sapiens, UniProt O15245); experiment: Transport kinetics (KM, vmax) of OCT1-mediated uptake, HEK293 cells overexpressing human OCT1; format: in vitro ADME; design: expressed in transfected cells; empty vector control pcDNA5; conditions: mean ± SD; for vmax: hOCT1; for Km at 2 min: human, HEK293 cells stably overexpressing human OCT1, pH 7.4, hOCT1
T4 sequence (O15245 1-554): T3 sequence (O15245 1-554)
Experimental: To validate the cocktail, we analyzed whether the combination of all substrates in a cocktail affected their individual transport kinetics in terms of KM and vmax. […] To measure the transport kinetics for a single substrate in the cocktail, we increased the concentration of 1 substrate while keeping the concentrations of the other substrates in the cocktail constant. The resulting KM and vmax values were compared with those obtained when each substrate was tested alone (Fig. 2; Supplemental Table 5).

[10] = target: T4, human OCT1 (hOCT1); design: expressed in transfected cells; empty vector control pcDNA5; method as in ref column References of Table 2 (Tzvetkov et al, 2018; Morse et al, 2020; Jensen et al, 2020; Meyer et al, 2019, 2022; Wittern et al, 2024 and own unpublished data; Elsby et al, 2017); conditions: literature values; References of Table 2 (Tzvetkov et al, 2018; Morse et al, 2020; Jensen et al, 2020; Meyer et al, 2019, 2022; Wittern et al, 2024 and own unpublished data; Elsby et al, 2017); cited from earlier work
[11] = target: T3, OCT1; experiment: Uptake of the cocktail by HEK293 cells overexpressing human OCT1; conditions: cocktail
Experimental: as §1

[12] = target: T4, human OCT1 (hOCT1)
Experimental: (§3) The kinetic transport parameters KM and vmax as well as the half-maximal inhibitory concentration (IC50) were calculated using GraphPad Prism version 8.0.2 (GraphPad Software, Inc). KM and vmax were calculated using nonlinear regression to the Michaelis-Menten equation.

[13] = tested on: OCT1; conditions: ref Tzvetkov et al, 2018 (fenoterol); Matthaei et al, 2016 (sumatriptan); cited from earlier work
[14] = target: T4, human OCT1 (hOCT1); experiment: Inhibition of OCT1-mediated uptake of the cocktail substrates in HEK293 cells overexpressing human OCT1; conditions: human OCT1, mean ± SD
Experimental: as §3

[15] = fold change to the negative control, n = 12

| SMILES | I max, portal, u ([2]; in vivo) | Imax, portal ([2]; in vivo) | transport by MATE1 [3] | transport by MATE2K [4] | DDI risk R, victim drug trospium [5] | Km [6] | cmax = Imax [7] | fraction unbound [7] | tmax [7] | DDI risk R, victim drug fenoterol [8] | DDI risk R, victim drug ipratropium [8] | DDI risk R, victim drug methylnaltrexone [8] | DDI risk R, victim drug salbutamol [8] | DDI risk R, victim drug zolmitriptan [8] | Km [10] | further results |
| --- | --- | --- | --- | --- | --- | --- | --- | --- | --- | --- | --- | --- | --- | --- | --- | --- |
| CN(C)C(=N)N=C(N)N [Metformin, metformin] | 39.48 µM | 5100 ng/mL | by far the strongest transport activity | by far the strongest transport activity | 1.00 | 491 µM | 1600 ng/mL | 1 | 1.90 h | 1.00 | 1.01 | 1.01 | 1.00 | 1.00 | 3.03 mM | uptake stronger in mouse than in human OCT1 ([1]; ratio mouse/human): 5.1 fold; k el ([2]; in vivo): 0.000111 s⁻¹; DDI risk R, victim drug sumatriptan [8]: 1.01; vmax ([9]; substrate tested alone): 6999 ± 2065 pmol x min^-1 x mg protein^-1; vmax ([9]; substrate tested in cocktail): 5251 ± 1311 pmol x min^-1 x mg protein^-1; Km at 2 min ([9]; substrate tested alone): 1.38 ± 0.512 mM; Km at 2 min ([9]; substrate tested in cocktail): 2 ± 0.338 mM |
| CNS(=O)(=O)Cc1ccc2[nH]cc(CCN(C)C)c2c1 [Sumatriptan, sumatriptan] | 1.91 µM | 714.8 ng/mL | by far the strongest transport activity | by far the strongest transport activity | 1.01 | 65.7 µM | 54 ng/mL | 0.79 | 1.50 h | 1.00 | 1.01 | 1.00 | 1.00 | 1.00 | 0.0558 mM | human OCT1 uptake [fold change to pcDNA5] [11, 15]: 15.3 fold change to pcDNA5; uptake stronger in human than in mouse OCT1 ([11]; ratio human/mouse): 2 fold; mouse Oct1 uptake [fold change to pcDNA5] [1, 15]: 7.8 fold change to pcDNA5; ka ([2]; in vivo): 0.64 h⁻¹; k el ([2]; plasma, read-out: ke (converted)): 0.000192 s⁻¹; IC50 [12]: 604 µM and 628 µM; increase in systemic exposure in individuals homozygous for OCT1 loss-of-function genetic variants [13]: 2 fold; t1/2 ([7]; ref Hardman, 2018, fenoterol Tzvetkov et al): 1.00 h; DDI risk R, victim drug metformin [8]: 1.00; IC50 ([14]; IC50 for inhibition of fenoterol uptake, substrate (victim) fenoterol 0.5 μM in cocktail): 482 ± 42.9 µM; IC50 ([14]; IC50 for inhibition of ipratropium uptake, substrate (victim) ipratropium 0.5 μM in cocktail): 207 µM; IC50 ([14]; IC50 for inhibition of methylnaltrexone uptake, substrate (victim) methylnaltrexone 1 μM in cocktail): 448 ± 40.9 µM; IC50 ([14]; IC50 for inhibition of trospium uptake, substrate (victim) trospium 0.1 μM in cocktail): 270 ± 42.6 µM; IC50 ([14]; IC50 for inhibition of zolmitriptan uptake, substrate (victim) zolmitriptan 0.5 μM in cocktail): 506 ± 36.2 µM |
